Data: the supplement of paper PMC11061612

Columns and labels:
[1] = tested on: BFTC-905 (Bladder Carcinoma); test: Bliss excess, mean over the matrix (fraction); higher = more synergy
Outline: (§1)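 Cell lines in DMEM/F12 or RPMI with 10% FBS were plated in 1536-well plates, held 24 hours at 37°C, 5% CO2, then given two-drug dose matrices for 72 hours (DMSO typically 0.2%). Viability was read by CellTiter-Glo 2.0 luminescence and scaled as inhibition from 0 (vehicle wells) to 1 (blank wells). Combination Emax is the second-highest inhibition in the matrix; Bliss excess is observed combination effect minus expected EA + EB − EA·EB, EA and EB being single-agent effects.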

[2] = tested on: BL-41 (Burkitt's Lymphoma); test: as above
Outline: as §1

[3] = tested on: CAMA-1 (Breast Carcinoma); test: as above
Outline: as §1

[4] = tested on: DND-41 (T-Lymphoblastic Leukemia); test: as above
Outline: as §1

[5] = tested on: ES1 (Ewing's Sarcoma); test: as above
Outline: as §1

[6] = tested on: ES8 (Ewing's Sarcoma); test: as above
Outline: as §1

[7] = tested on: GR-ST (B-Lymphoblastic Leukemia); test: as above
Outline: as §1

[8] = tested on: K-562 (Chronic Myelogenous Leukemia); test: as above
Outline: as §1

[9] = tested on: L-540 (Hodgkin's Lymphoma); test: as above
Outline: as §1

[10] = tested on: MKN28 (Gastric Carcinoma); test: as above
Outline: as §1

[11] = tested on: NCI-H1792 (Lung Adenocarcinoma); test: as above
Outline: as §1

[12] = tested on: NCI-H2818 (Mesothelioma); test: as above
Outline: as §1

[13] = tested on: SR (Other Blood Carcinomas); test: as above
Outline: as §1

[14] = tested on: SW1417 (Colorectal Carcinoma); test: as above
Outline: as §1

[15] = tested on: SW837 (Colorectal Carcinoma); test: as above
Outline: as §1

[16] = tested on: TC-71 (Ewing's Sarcoma); test: as above
Outline: as §1

[17] = tested on: TE-6 (Esophageal Squamous Cell Carcinoma); test: as above
Outline: as §1

[18] = tested on: U251 (Low Grade Glioma); test: as above
Outline: as §1

[19] = tested on: WIL2-NS (Non-Cancerous); test: as above
Outline: as §1

[20] = tested on: WM-115 (Melanoma); test: as above
Outline: as §1

[21] = tested on: BFTC-905 (Bladder Carcinoma); test: combination Emax (second highest fraction inhibited in the dose matrix, 72 h); higher = more inhibition; extreme values may be limits of the assay
Outline: as §1

[22] = tested on: BL-41 (Burkitt's Lymphoma); test: as above
Outline: as §1

[23] = tested on: CAMA-1 (Breast Carcinoma); test: as above
Outline: as §1

[24] = tested on: DND-41 (T-Lymphoblastic Leukemia); test: as above
Outline: as §1

[25] = tested on: ES1 (Ewing's Sarcoma); test: as above
Outline: as §1

[26] = tested on: ES8 (Ewing's Sarcoma); test: as above
Outline: as §1

[27] = tested on: GR-ST (B-Lymphoblastic Leukemia); test: as above
Outline: as §1

[28] = tested on: K-562 (Chronic Myelogenous Leukemia); test: as above
Outline: as §1

[29] = tested on: L-540 (Hodgkin's Lymphoma); test: as above
Outline: as §1

[30] = tested on: MKN28 (Gastric Carcinoma); test: as above
Outline: as §1

[31] = tested on: NCI-H1792 (Lung Adenocarcinoma); test: as above
Outline: as §1

[32] = tested on: NCI-H2818 (Mesothelioma); test: as above
Outline: as §1

[33] = tested on: SR (Other Blood Carcinomas); test: as above
Outline: as §1

[34] = tested on: SW1417 (Colorectal Carcinoma); test: as above
Outline: as §1

[35] = tested on: SW837 (Colorectal Carcinoma); test: as above
Outline: as §1

[36] = tested on: TC-71 (Ewing's Sarcoma); test: as above
Outline: as §1

[37] = tested on: TE-6 (Esophageal Squamous Cell Carcinoma); test: as above
Outline: as §1

[38] = tested on: U251 (Low Grade Glioma); test: as above
Outline: as §1

[39] = tested on: WIL2-NS (Non-Cancerous); test: as above
Outline: as §1

[40] = tested on: WM-115 (Melanoma); test: as above
Outline: as §1
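For Bliss excess, mean over the matrix in this document: after 72 h of two-drug dosing.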

SMILES | Bliss excess [1] | Bliss excess [2] | Bliss excess [3] | Bliss excess [4] | Bliss excess [5] | Bliss excess [6] | Bliss excess [7] | Bliss excess [8] | Bliss excess [9] | Bliss excess [10] | Bliss excess [11] | Bliss excess [12] | Bliss excess [13] | Bliss excess [14] | Bliss excess [15] | Bliss excess [16] | Bliss excess [17] | Bliss excess [18] | Bliss excess [19] | Bliss excess [20] | combination Emax [21] | combination Emax [22] | combination Emax [23] | combination Emax [24] | combination Emax [25] | combination Emax [26] | combination Emax [27] | combination Emax [28] | combination Emax [29] | combination Emax [30] | combination Emax [31] | combination Emax [32] | combination Emax [33] | combination Emax [34] | combination Emax [35] | combination Emax [36] | combination Emax [37] | combination Emax [38] | combination Emax [39] | combination Emax [40]
CS(=O)(=O)CCNCc1ccc(-c2ccc3ncnc(Nc4ccc(OCc5cccc(F)c5)c(Cl)c4)c3c2)o1 [Lapatinib] + NC1(c2ccc(-c3nc4ccn5c(=O)[nH]nc5c4cc3-c3ccccc3)cc2)CCC1 [MK-2206] (first compound max 10 µM, 7x7, partner max 10 µM) | 0.0323 | 0.0176 | 0.0301 | 0.0377 | 0.0341 | -0.004 | -0.0298 | -0.0367 | -0.0209 | -0.0445 | 0.0243 | -0.0155 | 0.0147 | 0.0395 | 0.0106 | -0.0342 | -0.0159 | -0.0083 | 0.0569 | -0.0093 | 0.888 | 0.942 | 0.909 | 0.946 | 0.97 | 0.851 | 0.981 | 0.602 | 0.918 | 0.687 | 0.785 | 0.351 | 0.819 | 0.459 | 0.633 | 0.589 | 0.816 | 0.454 | 0.674 | 0.855
O=C(c1cc(Cc2n[nH]c(=O)c3ccccc23)ccc1F)N1CCN(C(=O)C2CC2)CC1 [Olaparib] + COc1nnc2ccc(N3CCC(c4ccc(OCCN5CCN(C)C(=O)[C@H]5C)cc4)CC3)nn12 [AZD5153] (first compound max 10 µM, 7x7, partner max 1 µM) | -0.0614 | -0.0634 | -0.0417 | 0.0275 | -0.0392 | 0.0168 | -0.0519 | -0.0063 | -0.0841 | -0.056 | -0.0554 | -0.0205 | 0.0315 | -0.0096 | -0.0656 | – | – | – | -0.0128 | -0.135 | 0.6 | 0.648 | 0.484 | 0.69 | 0.882 | 0.966 | 0.776 | 0.412 | 0.619 | 0.362 | 0.527 | 0.325 | 0.626 | 0.448 | 0.484 | – | – | – | 0.818 | 0.295
Cc1cc2ncnn2cc1Nc1ncc2c(n1)n(C1CCOCC1)c(=O)n2C [AZD7648] + COc1cc([C@@H]2c3cc4c(cc3[C@@H](O[C@@H]3O[C@@H]5CO[C@@H](C)O[C@H]5[C@H](O)[C@H]3O)[C@H]3COC(=O)[C@H]23)OCO4)cc(OC)c1O [Etoposide] (first compound max 10 µM, 7x7, partner max 10 µM) | 0.152 | 0.0647 | -0.012 | 0.115 | 0.109 | 0.165 | 0.0727 | 0.114 | 0.108 | 0.0435 | 0.0565 | 0.0361 | 0.193 | 0.0288 | 0.0591 | – | – | – | 0.0553 | 0.0071 | 0.903 | 0.998 | 0.463 | 0.967 | 1 | 0.994 | 0.703 | 0.872 | 0.903 | 0.56 | 0.708 | 0.617 | 1 | 0.382 | 0.358 | – | – | – | 0.981 | 0.481
